Data from patent publication US6664231B1, “Anti-fungal peptides” (priority 1993, dated 2003).
Read-outs that look alike come from different tables or passages of the source.

Columns and labels:
[1] = system: Candida albicans SLU-2G amphotericin B-resistant strain; experiment: Radial diffusion assay (Example 3), amphotericin B-resistant strain; format: cell-based; settings: FIG. 2B
Experimental: Domain III derived peptides were tested for their fungicidal activity on amphotericin resistant Candida. Resistant colonies of Candida were isolated using a gradient plate technique. A slanted Sabouraud dextrose agar plate was poured and allowed to harden. The plate was made level and additional agar supplemented with nystatin (Sigma, St. Louis, Mo., cat. no. N-3503) at a concentration of 10 μg/mL was poured. Cells from the CA-1 colony of Candida albicans SLU-1 strain described in Example 2 (10^7 cells in a volume of 100 μL) were spread over the plate and incubated at […] overnight.
For the radial diffusion assays, Candida albicans SLU-1 were grown as described above and SLU-2G were grown overnight in Sabouraud dextrose broth supplemented with 10 μg/mL amphotericin B and 5 μg/mL ceftriaxone at 37° C. Cultures were diluted 1:25 into fresh, unsupplemented broth and allowed to grow for 5 hours at 37° C. Cells were pelleted at 1,500×g for 5 minutes at 4° C. Supernatant was decanted and replaced with 5 mL of 10 mM phosphate buffer, pH 7.4. After centrifugation the cell pellets were resuspended with 5 mL phosphate buffer for an OD570 determination.
Cells were added to 10 mL of molten, cooled (˜45° C.) underlayer agarose to a concentration of 1×10^6/mL and the suspension was poured into a level square petri plate with gentle rocking to allow even distribution and solidification to a uniform thickness of about 1 mm. Wells were cut into the hardened agarose with a sterilize, 3 mm diameter punch with vacuum.
Peptides were two-fold serially diluted with DPBS from a starting concentration of approximately 1 mg/mL. […] Five μL were added per well and allowed to diffuse at 37° C. for 1.5-2.0 hours. Then 10 mL of molten overlayer agarose were added and the plates were incubated inverted at 37° C. overnight. Plates were stained with a dilute Coomassie solution, inhibition zones were measured with calipers and net areas were calculated, then converted to pmol values by PROBIT analysis.

[2] = system: Fusarium solani ATCC 36031; experiment: microbe, parasite or virus in culture; format: cell-based
Experimental: (§1) The anti-fungal activity of Domain III derived peptides was evaluated against a variety of fungal species, including species of Candida. Cryptococcus, Fusarium, Trichophyton, and Aspergillus, by an additional assay protocol utilizing Alamar Blue. Alamar Blue is an indicator dye formulated to measure quantitatively the proliferation of a variety of human or animal cells, bacteria, or fungi. It consists of an oxidation-reduction (REDOX) indicator that yields a colorimetric change in response to metabolic activity. For these experiments, species of Candida and Cryptococcus were grown in Sabouraud's dextrose broth (SDB) overnight. Strains of filamentous fungi (Aspergilius, Fusanum, Trichophyton) were obtained by irrigation of a confluent culture from a petri dish. Cells were washed and adjusted to a concentration of 5.0×10^3/mL in fresh SDB. […] Controls included amphotericin B, fluconazole, ketoconazole and griseofulvin. Antifungal drugs were also diluted in the same manner. Assays were performed in 96-well microuiter plates. […] The wells to be plated were determined by OD590 readings. The lowest concentration of peptide which maintained the blue color (or OD reading) of the blank was chosen along with the next two higher concentrations. Plates were allowed to grow for 18-48 hours depending on the rate of growth of each fungus. Minimal fungicidal activity (MFC) was determined as a 99.9% killing of the starting inoculum.

[3] = system: Aspergillus niger ATCC 16404; experiment: microbe, parasite or virus in culture; format: cell-based
Experimental: as §1

[4] = system: Candida parapsilosis ATCC 22019; experiment: microbe, parasite or virus in culture; format: cell-based
Experimental: as §1

Aspergillus ATCC 13073 = experiment: microbe, parasite or virus in culture; format: cell-based
Experimental: as §1

[5] = system: Candida glabrata ATCC 2001; experiment: microbe, parasite or virus in culture; format: cell-based
Experimental: as §1

[6] = system: Cryptococcus neoformans ATCC 13690; experiment: microbe, parasite or virus in culture; format: cell-based
Experimental: as §1

[7] = system: Candida albicans (SLU-1 and ATCC strains); experiment: microbe, parasite or virus in culture; format: cell-based
Experimental: as §1

[8] = system: C. albicans (CA-1, Strain SLU-1); experiment: Radial diffusion assay; format: cell-based, Candida albicans; settings: pmoles of peptide added to well to achieve a 30 mm^2 zone, PROBIT analysis, crude or purified (P′) peptide
Summary of the method: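 Yeast at 1×10^6 CFU/mL in agarose underlayer (3% Sabouraud, 10 mM sodium phosphate pH 7.4); 2-fold peptide dilutions in D-PBS from ~1 mg/mL loaded into wells, 3 h at 37° C, then nutrient overlayer overnight. Value: pmol/well giving 30 mm^2 net clear zone, by PROBIT regression.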

Compound: C[C@@H]1[C@H](O)[C@@H](C)/C=C/C=C/C=C/C=C/C=C/C=C/C=C/[C@H](O[C@@H]2O[C@H](C)[C@@H](O)[C@H](N)[C@@H]2O)C[C@@H]2O[C@](O)(C[C@@H](O)C[C@@H](O)[C@H](O)CC[C@@H](O)C[C@@H](O)CC(=O)O[C@H]1C)C[C@H](O)[C@H]2C(=O)O [Amphotericin B, amphotericin B, reference compound]
- pmol for a 30 mm^2 zone of inhibition against SLU-2G [1]: > 541 pmol
- Minimum Fungicidal Concentration, Fusarium solani ATCC 36031 [2]: 0.62 µg/mL
- Minimum Fungicidal Concentration, Aspergillus niger ATCC 16404 [3]: 5.00 µg/mL
- Minimum Fungicidal Concentration, Candida parapsilosis ATCC 22019 [4]: 5.0 µg/mL
- Minimum Fungicidal Concentration, Aspergillus ATCC 13073 (Aspergillus ATCC 13073): 12.50 µg/mL
- Minimum Fungicidal Concentration, Candida glabrata ATCC 2001 [5]: 0.32 µg/mL
- Minimum Fungicidal Concentration, Cryptococcus neoformans ATCC 13690 [6]: 1.25 µg/mL
- Minimum Fungicidal Concentration, Candida albicans ATCC 10231 ([7]; strain ATCC 10231): 0.63 µg/mL
- Minimum Fungicidal Concentration, Candida albicans ATCC 18840 ([7]; strain ATCC 18840): 1.25 µg/mL
- Minimum Fungicidal Concentration, Candida albicans ATCC 26555 ([7]; strain ATCC 26555): 1.25 µg/mL
- Minimum Fungicidal Concentration, Candida albicans ATCC 44808 ([7]; strain ATCC 44808): 1.25 µg/mL
- Minimum Fungicidal Concentration, Candida albicans ATCC 90028 ([7]; strain ATCC 90028): 1.25 µg/mL
- Minimum Fungicidal Concentration, Candida albicans SLU-1 ([7]; strain SLU-1): 0.63 µg/mL

Compound: H-KSKVGWAIQLFHKK-NH2 [XMP.37]
- pmol for a 30 mm^2 zone of inhibition against SLU-2G [1]: 75 pmol
- C. albicans pmol/30 mm^2 zone [8]: 253 pmol/30 mm^2 zone

Compound: H-SKVKWLIQLFHKK-NH2 [XMP.284]
- C. albicans pmol/30 mm^2 zone [8]: 1,460 pmol/30 mm^2 zone
- C. albicans pmol/30 mm^2 zone ([8]; listed as XMP.284P′): 373 pmol/30 mm^2 zone
- Minimum Fungicidal Concentration, Fusarium solani ATCC 36031 ([2]; ATCC 36031): 0.31 µg/mL
- Minimum Fungicidal Concentration, Aspergillus niger ATCC 16404 ([3]; ATCC 16404): 2.5 µg/mL
- Minimum Fungicidal Concentration, Candida parapsilosis ATCC 22019 ([4]; ATCC 22019): >10.0 µg/mL
- Minimum Fungicidal Concentration, Aspergillus ATCC 13073 (Aspergillus ATCC 13073; ATCC 13073): 12.50 µg/mL
- Minimum Fungicidal Concentration, Candida glabrata ATCC 2001 ([5]; ATCC 2001): >10.0 µg/mL
- Minimum Fungicidal Concentration, Cryptococcus neoformans ATCC 13690 ([6]; ATCC 13690): 0.63 µg/mL
- Minimum Fungicidal Concentration, Candida albicans ATCC 10231 ([7]; SLU-1 and ATCC strains): 5.0 µg/mL
- Minimum Fungicidal Concentration, Candida albicans ATCC 18840 ([7]; SLU-1 and ATCC strains): 2.5 µg/mL
- Minimum Fungicidal Concentration, Candida albicans ATCC 26555 ([7]; SLU-1 and ATCC strains): 1.25 µg/mL
- Minimum Fungicidal Concentration, Candida albicans ATCC 44808 ([7]; SLU-1 and ATCC strains): 1.25 µg/mL
- Minimum Fungicidal Concentration, Candida albicans ATCC 90028 ([7]; SLU-1 and ATCC strains): 1.25 µg/mL
- Minimum Fungicidal Concentration, Candida albicans SLU-1 ([7]; SLU-1 and ATCC strains): 2.50 µg/mL

Compound: H-KSKVGWLIQLFHKK-NH2 [XMP.13]
- pmol for a 30 mm^2 zone of inhibition against SLU-2G [1]: 129 pmol
- C. albicans pmol/30 mm^2 zone [8]: 541 pmol/30 mm^2 zone
- C. albicans pmol/30 mm^2 zone ([8]; listed as XMP.13P′): 222 pmol/30 mm^2 zone
